{
  "source": "paper PMC3855394",
  "about": "“Bright Fluorescence Monitoring System Utilizing Zoanthus sp. Green Fluorescent Protein (ZsGreen) for Human G-Protein-Coupled Receptor Signaling in Microbial Yeast Cells” (PLoS ONE, 2013)",
  "key": {"[1]": {"system": "human neurotensin receptor subtype-1 (hNTSR1)", "test": "GPCR signaling assay using membrane-tethered peptide ligands, hNTSR1", "format": "cell-based", "settings": "strain IMFD-72ZsD, pGK421-NTSR1, flow cytometry; for fold increase in fluorescence intensity compared with α-factor: after 24 h cultivation, pH-adjusted SD medium, mean of 10,000 cells, n = 3; for rank order of ZsGreen fluorescence: membrane-tethered peptides, 24 h", "procedure": "(§1) The cultured cells were washed and suspended in distilled water. The cell suspensions were observed using a BZ-9000 fluorescence microscope (Keyence, Osaka, Japan). Green fluorescence images were acquired with a 470/40 band-pass filter for excitation and a 535/50 band-pass filter for emission. Digital image intensities of green fluorescence were carried out, from four experiments each, with the ImageJ software (freely downloadable from the ImageJ website, http://rsbweb.nih.gov/ij/) and expressed as Integrated Density (IntDen) or its percent.\n(§2) Flow cytometry measurements of green fluorescence followed previous procedures. In brief, GFP was detected using a BD FACSCanto II flow cytometer equipped with a 488-nm blue laser (Becton, Dickinson and Company, Franklin Lakes, NJ, USA); the data were analyzed using BD FACSDiva software (v5.0; Becton, Dickinson and Company). The GFP fluorescence signal was collected through a 530/30 nm band-pass filter and the GFP-A mean of 10,000 cells was defined as ‘green fluorescence intensity’.\nGPCR signaling assays using membrane-tethered peptide ligands basically followed a previous procedure with some modifications. In brief, to assay signal activation from human GPCRs, yeast strains harboring the pGK421-based GPCR expression plasmids and pGK426-based peptide display plasmids were grown in SD medium (supplemented as needed) at 30 °C overnight, then the cells then were inoculated into 5 mL of the respective fresh SDM71 medium to give an initial OD600 = 0.1. The cells were incubated at 30 °C on a rotary shaker at 150 rpm, then the yeast cells were observed using a fluorescence microscope, diluted with 1 ml of sheath fluid, and fluorescence was analyzed by flow cytometry.\nData were analyzed using KaleidaGraph4.0. Statistical significance of the differences between more than two groups was calculated by one-way ANOVA, followed by Tukey’s post test. Z’ factor, a commonly used parameter reflecting the robustness and the quality of assays, was determined as follows: Z’ factor = 1 ‒ 3(SDpositive control + SDnegative control)/ (meanpositive control ‒ meannegative control), where “SD” represents standard deviation of multiple replicates of an assay."}, "[2]": {"settings": "cited from earlier work", "from_the_text": "Studies on the structure-activity relationship of neurotensin verified that positive charges at positions 8 and 9 are important but not prerequisite for its bioactivity. There is charge complementarity between NTS8–13 and its binding pocket: the positively- ..."}, "[3]": {"system": "human somatostatin receptor subtype-5 (hSSTR5)", "test": "GPCR signaling assay with exogenously added ligand, hSSTR5 (FIG1-promoter GFP reporter yeast)", "format": "cell-based", "settings": "4 h; for fluorescence microscopy observation: 10 μM SST; for fold increase in fluorescence on agonist addition / fold increase in fluorescence intensity in response to agonist stimulation: pGK421-SSTR5, with vs without 10 μM SST, 30 °C, pH 7.1 SD medium, flow cytometry, mean of 10,000 cells, n = 3", "procedure": "as §1, §2\n(§3) GPCR signaling assays with exogenously added ligands basically followed previous procedures. In brief, to assay signal activation from human GPCRs, yeast strains harboring the pGK421-based plasmids were grown in SD medium (supplemented as needed) at 30 °C overnight, then the cells then were inoculated into 5 mL of the respective fresh SD medium to give an initial OD600 = 0.03. The cells were incubated at 30 °C on a rotary shaker at 150 rpm for up to 18 h and harvested, washed, and resuspended in water to give an OD600 = 10. […] The plates were incubated at 30 °C with shaking (150 rpm) for 4 h, then the yeast cells were observed using a fluorescence microscope, diluted with 1 mL of sheath fluid, and fluorescence was analyzed by flow cytometry."}, "[4]": {"system": "human somatostatin receptor subtype-2 (hSSTR2)", "test": "GPCR signaling assay with exogenously added ligand, hSSTR2", "format": "cell-based", "settings": "4 h; for fold higher fluorescence on agonist addition / fold increase in fluorescence intensity on agonist stimulation: pGK421-SSTR2, with vs without 10 μM SST, 30 °C, pH 7.1 SD medium, flow cytometry, mean of 10,000 cells, n = 3", "procedure": "as §1, §2, §3"}, "[5]": {"system": "human neurotensin receptor subtype-1 (hNTSR1)", "test": "GPCR signaling assay with exogenously added ligand, hNTSR1", "format": "cell-based", "settings": "4 h; for fold higher fluorescence than in the absence of agonist / fold increase in fluorescence intensity in response to agonist stimulation: pGK421-NTSR1, with vs without 10 μM NTS, 30 °C, pH 7.1 SD medium, flow cytometry, mean of 10,000 cells, n = 3", "procedure": "as §1, §2, §3"}, "[6]": {"system": "human neurotensin receptor subtype-1 (hNTSR1)", "test": "Quantitative digital image analysis of ZsGreen fluorescence (microscopy, ImageJ), hNTSR1", "format": "cell-based", "settings": "strain IMFD-72ZsD, pGK421-NTSR1; NTS at several concentrations, 4 h; 100 cells, n = 4", "procedure": "as §1, §3"}, "[7]": {"settings": "strain IMFD-70ZsD (ZsGreen, Gpa1p)"}, "[8]": {"settings": "strain IMFD-72ZsD (ZsGreen, Gi3tp)"}},
  "data": [
    {"substance": "RRPYIL [NTS8–13, NTS 8-13 -Flag–Flo42 in pGK426; membrane-tethered NTS8–13]", "values": [
      {"measurement": "fold increase in fluorescence intensity compared with α-factor", "setting": "[1]", "value": "greater than 35 fold"},
      {"measurement": "rank order of ZsGreen fluorescence", "setting": "[1]", "value": "NTS8–13 > NTS > NMN > α-factor"}
    ]},
    {"substance": "KIPYIL [neuromedin N, neurotensin-like peptide, KIPYIL (cited from literature)]", "values": [
      {"measurement": "biological activity", "setting": "[2]", "value": "very weak biological activity"}
    ]},
    {"substance": "RRPYIL [Neurotensin-(8-13), pharmacophore of neurotensin, RRPYIL (cited from literature)]", "values": [
      {"measurement": "potency and efficacy versus full-length NTS", "setting": "[2]", "value": "higher potency and efficacy than full-length NTS"}
    ]},
    {"substance": "somatostatin [SST]", "values": [
      {"measurement": "fluorescence microscopy observation", "setting": "[3]; hSSTR5-expressing IMFD-70ZsD and IMFD-72ZsD (ZsGreen), 40× and 100× objective", "value": "exhibited changes in green fluorescence and morphology"},
      {"measurement": "fluorescence microscopy observation", "setting": "[3]; hSSTR5-expressing IMFD-70 and IMFD-72 (EGFP)", "value": "the fluorescence was too weak to allow observation with a fluorescence microscope"},
      {"measurement": "fold increase in fluorescence on agonist addition", "setting": "[3]; strain IMFD-70 (EGFP, Gpa1p)", "value": 3.9, "unit": "fold"},
      {"measurement": "fold increase in fluorescence intensity in response to agonist stimulation", "setting": "[3]; strain IMFD-70Zs (single ZsGreen substitution, Gpa1p)", "value": 33, "unit": "fold"},
      {"measurement": "fold increase in fluorescence intensity in response to agonist stimulation", "setting": "[3]; strain IMFD-70ZsD (double ZsGreen substitution, Gpa1p)", "value": 83, "unit": "fold"},
      {"measurement": "fold increase in fluorescence on agonist addition", "setting": "[3]; strain IMFD-72 (EGFP, Gi3tp)", "value": 5.6, "unit": "fold"},
      {"measurement": "fold increase in fluorescence intensity in response to agonist stimulation", "setting": "[3]; strain IMFD-72Zs (single ZsGreen substitution, Gi3tp)", "value": 65, "unit": "fold"},
      {"measurement": "fold increase in fluorescence intensity in response to agonist stimulation", "setting": "[3]; strain IMFD-72ZsD (double ZsGreen substitution, Gi3tp)", "value": 104, "unit": "fold"},
      {"measurement": "fluorescence microscopy observation", "setting": "[4]; hSSTR2-expressing IMFD-72ZsD, 10 μM SST, 40× and 100× objective", "value": "clearly exhibited changes in green fluorescence and morphology"},
      {"measurement": "fold higher fluorescence on agonist addition", "setting": "[4]; strain IMFD-70 (EGFP, Gpa1p)", "value": 3.0, "unit": "fold"},
      {"measurement": "fold increase in fluorescence intensity on agonist stimulation", "setting": "[4]; [7]", "value": 36, "unit": "fold"},
      {"measurement": "fold higher fluorescence on agonist addition", "setting": "[4]; strain IMFD-72 (EGFP, Gi3tp)", "value": 4.6, "unit": "fold"},
      {"measurement": "fold increase in fluorescence intensity on agonist stimulation", "setting": "[4]; [8]", "value": 81, "unit": "fold"}
    ]},
    {"substance": "neurotensin [NTS]", "values": [
      {"measurement": "fluorescence microscopy observation", "setting": "[5]; hNTSR1-expressing IMFD-72ZsD, 10 μM NTS, 40× and 100× objective", "value": "clearly exhibited changes in green fluorescence and morphology"},
      {"measurement": "fold higher fluorescence than in the absence of agonist", "setting": "[5]; strain IMFD-70 (EGFP, Gpa1p)", "value": 1.3, "unit": "fold"},
      {"measurement": "fold increase in fluorescence intensity in response to agonist stimulation", "setting": "[5]; [7]", "value": 7.9, "unit": "fold"},
      {"measurement": "fold higher fluorescence than in the absence of agonist", "setting": "[5]; strain IMFD-72 (EGFP, Gi3tp)", "value": 2.3, "unit": "fold"},
      {"measurement": "fold increase in fluorescence intensity in response to agonist stimulation", "setting": "[5]; [8]", "value": 45, "unit": "fold"},
      {"measurement": "digital intensity of green fluorescence (IntDen), concentration dependence", "setting": "[6]", "value": "varied in a NTS-dependent manner"}
    ]},
    {"substance": "KIPYIL [NMN, NMN–Flag–Flo42 in pGK426; membrane-tethered neuromedin N]", "values": [
      {"measurement": "fold increase in fluorescence intensity compared with α-factor", "setting": "[1]", "value": "> 1.5", "unit": "fold"},
      {"measurement": "rank order of ZsGreen fluorescence", "setting": "[1]", "value": "NTS8–13 > NTS > NMN > α-factor"}
    ]}
  ]
}
